Where a name gives a salt, the structure may show the parent alone.
COc1cc2nccc(Oc3ccc(NS(=O)(=O)c4ccccc4)c(F)c3)c2cc1OC
melting point: 234 to 235 °C

COc1cc2nccc(Oc3ccc(NS(=O)(=O)c4ccccc4C(F)(F)F)cc3)c2cc1OC
melting point: 224 to 227 °C

COc1cc2nccc(Oc3ccc(NS(=O)(=O)c4ccccc4C(F)(F)F)cc3OC)c2cc1OC
melting point: 198 to 199 °C

COc1cc2nccc(Oc3ccc(NS(=O)(=O)c4ccccc4C(F)(F)F)cc3C)c2cc1OC
melting point: 209 to 211 °C

COc1cc2nccc(Oc3ccc(NS(=O)(=O)c4cccc(F)c4)c(F)c3)c2cc1OC
melting point: 233 to 235 °C

COc1cc2nccc(Oc3ccc(NS(=O)(=O)c4cccc(C(F)(F)F)c4)c(F)c3)c2cc1OC
melting point: 230 to 231 °C

COc1cc2nccc(Oc3ccc(NS(=O)(=O)c4ccc(F)cc4F)c(F)c3)c2cc1OC
melting point: 212 to 214 °C

COc1cc2nccc(Oc3ccc(NS(=O)(=O)c4cc(F)ccc4F)c(F)c3)c2cc1OC
melting point: 232 to 234 °C

COc1cc2nccc(Oc3ccc(NS(=O)(=O)c4c(Cl)cccc4Cl)c(F)c3)c2cc1OC
melting point: 217 to 218 °C

COc1cc2nccc(Oc3ccc(NS(=O)(=O)c4cc(Cl)ccc4Cl)c(F)c3)c2cc1OC
melting point: 228 to 230 °C

COc1cc2nccc(Oc3ccc(NS(=O)(=O)c4ccccc4C(F)(F)F)c(F)c3)c2cc1OC
melting point: 237 to 239 °C

COc1cc2nccc(Oc3ccc(NS(=O)(=O)c4ccccc4C)c(F)c3)c2cc1OC
melting point: 218 to 220 °C

COc1cc2nccc(Oc3ccc(NS(=O)(=O)c4ccccc4OC(F)(F)F)c(F)c3)c2cc1OC
melting point: 204 to 206 °C

COc1cc2nccc(Oc3ccc(NS(=O)(=O)c4ccccc4C(F)(F)F)cc3F)c2cc1OC
melting point: 80 to 83 °C

COc1cc2c(Oc3ccc(NS(=O)(=O)c4ccccc4C(F)(F)F)cc3F)ccnc2cc1OCCN1CCOCC1
melting point: 178 to 180 °C

COc1cc2c(Oc3ccc(NS(=O)(=O)c4cc(F)ccc4F)cc3F)ccnc2cc1OCCN1CCOCC1
melting point: 169 to 173 °C

COc1cc2c(Oc3ccc(NS(=O)(=O)c4cc(F)ccc4F)cc3F)ccnc2cc1OCCCN1CCC(C)CC1
melting point: 223 to 225 °C

COc1cc2c(Oc3ccc(NS(=O)(=O)c4ccccc4C(F)(F)F)cc3F)ccnc2cc1OCCCN (as salt: hydrochloride)
melting point: 197 to 199 °C

COc1cc2c(Oc3ccc(NS(=O)(=O)c4cccc(-c5ccccc5)c4)cc3F)ccnc2cc1OCCCN (as salt: hydrochloride) [Example D03, Biphenyl-3-sulfonic acid {4-[7-(3-amino-propoxy)-6-methoxy-quinolin-4-yloxy]-3-fluoro-phenyl}-amide hydrochloride]
melting point: 198 to 202 °C

COc1cc2c(Oc3ccc(NS(=O)(=O)c4ccccc4OC(F)(F)F)cc3F)ccnc2cc1OCCCN (as salt: hydrochloride) [Example D15, N-{4-[7-(3-Amino-propoxy)-6-methoxy-quinolin-4-yloxy]-3-fluoro-phenyl}-2-trifluoromethoxy-benzenesulfonamide hydrochloride]
melting point: 95 to 97 °C

COc1cc2nccc(Oc3ccc(NS(=O)(=O)c4cccc5cccnc45)c(F)c3)c2cc1OC [Example A8, Quinoline-8-sulfonic acid [4-(6,7-dimethoxy-quinolin-4-yloxy)-2-fluoro-phenyl]-amide]
melting point: 255 to 257 °C

COc1cc2nccc(Oc3ccc(NS(=O)(=O)c4cccc(OC(F)(F)F)c4)c(F)c3)c2cc1OC [Example A35, N-[4-(6,7-Dimethoxy-quinolin-4-yloxy)-2-fluoro-phenyl]-3-trifluoromethoxy-benzenesulfonamide]
melting point: 221 to 223 °C

COc1cc2nccc(Oc3ccc(NS(=O)(=O)c4cc(Br)cc(C(F)(F)F)c4)c(F)c3)c2cc1OC [Example A47, 3-Bromo-N-[4-(6,7-dimethoxy-quinolin-4-yloxy)-2-fluoro-phenyl]-5-trifluoromethyl-benzenesulfonamide]
melting point: 214 to 216 °C

COc1cc2nccc(Oc3ccc(NS(=O)(=O)c4ccc(Cl)c(Cl)c4)c(F)c3)c2cc1OC [Example A49, 3,4-Dichloro-N-[4-(6,7-dimethoxy-quinolin-4-yloxy)-2-fluoro-phenyl]-benzenesulfonamide]
melting point: 225 to 227 °C

COc1cc2nccc(Oc3ccc(NS(=O)(=O)c4ccc(OCc5c(C)noc5C)cc4)cc3)c2cc1OC [Example A87, N-[4-(6,7-Dimethoxy-quinolin-4-yloxy)-phenyl]-4-(3,5-dimethyl-isoxazol-4-ylmethoxy)-benzenesulfonamide]
melting point: 188 to 190 °C

COc1cc2nccc(Oc3ccc(NS(=O)(=O)c4cccc5ccccc45)cc3)c2cc1OC [Example A104, Naphthalene-1-sulfonic acid [4-(6,7-dimethoxy-quinolin-4-yloxy)-phenyl]-amide]
melting point: 250 to 253 °C

COc1cc2nccc(Oc3ccc(NS(=O)(=O)c4cc(Cl)c(O)c(Cl)c4)c(C)c3)c2cc1OC [Example A105, 3,5-Dichloro-N-[4-(6,7-dimethoxy-quinolin-4-yloxy)-2-methyl-phenyl]-4-hydroxy-benzenesulfonamide]
melting point: 255 to 259 °C

COc1cc2nccc(Oc3ccc(NS(=O)(=O)c4ccc5c(c4)CC(=O)N5C)cc3F)c2cc1OC [Example A125, 1-Methyl-2-oxo-2,3-dihydro-1H-indole-5-sulfonic acid [4-(6,7-dimethoxy-quinolin-4-yloxy)-3-fluoro-phenyl]-amide]
melting point: 163 to 165 °C

COc1cc2c(Oc3ccc(NS(=O)(=O)c4ccccc4C(F)(F)F)cc3F)ccnc2cc1OCCCN1CCCC(C)C1 (stereo not drawn) [Example D35, N-(3-Fluoro-4-{6-methoxy-7-[3-(3-methyl-piperidin-1-yl)-propoxy]-quinolin-4-yloxy}phenyl)-2-trifluoromethyl-benzenesulfonamide]
melting point: 118 to 121 °C

COc1cc2c(Oc3ccc(NS(=O)(=O)c4cc(F)ccc4F)cc3F)ccnc2cc1OCCCN1CCCC(C)C1 (stereo not drawn) [Example D36, 2,5-Difluoro-N-(3-fluoro-4-{6-methoxy-7-[3-(3-methyl-piperidin-1-yl)-propoxy]-quinolin-4-yloxy}-phenyl)-benzenesulfonamide]
melting point: 103 to 107 °C

COc1cc2c(Oc3ccc(NS(=O)(=O)c4cccc(-c5ccccc5)c4)cc3F)ccnc2cc1OCCCN1CCCC(C)C1 (stereo not drawn) [Example D37, Biphenyl-3-sulfonic acid (3-fluoro-4-{6-methoxy-7-[3-(3-methyl-piperidin-1-yl)-propoxy]-quinolin-4-yloxy}-phenyl)-amide]
melting point: 190 to 192 °C

COc1cc(S(=O)(=O)Nc2ccc(Oc3ccnc4cc(OCCCN5CCCC(C)C5)c(OC)cc34)c(F)c2)ccc1F (stereo not drawn) [Example D38, 4-Fluoro-N-(3-fluoro-4-{6-methoxy-7-[3-(3-methyl-piperidin-1-yl)-propoxy]-quinolin-4-yloxy}-phenyl)-3-methoxy-benzenesulfonamide]
melting point: 98 to 101 °C

COc1cc2c(Oc3ccc(NS(=O)(=O)c4ccccc4C(F)(F)F)cc3F)ccnc2cc1OCCCN1CCOCC1 [Example D39, N-{3-Fluoro-4-[6-methoxy-7-(3-morpholin-4-yl-propoxy)-quinolin-4-yloxy]-phenyl}-2-trifluoromethyl-benzenesulfonamide]
melting point: 180 to 181 °C

COc1cc2c(Oc3ccc(NS(=O)(=O)c4ccccc4OC(F)(F)F)cc3F)ccnc2cc1OCCCN1CCOCC1 [Example D40, N-{3-Fluoro-4-[6-methoxy-7-(3-morpholin-4-yl-propoxy)-quinolin-4-yloxy]-phenyl}-2-trifluoromethoxy-benzenesulfonamide]
melting point: 183 to 184 °C

COc1cc2c(Oc3ccc(NS(=O)(=O)c4cc(F)ccc4F)cc3F)ccnc2cc1OCCCN1CCOCC1 [Example D41, 2,5-Difluoro-N-{3-fluoro-4-[6-methoxy-7-(3-morpholin-4-yl-propoxy)-quinolin-4-yloxy]-phenyl}-benzenesulfonamide]
melting point: 192 to 195 °C

COc1cc2c(Oc3ccc(NS(=O)(=O)c4cccc(-c5ccccc5)c4)cc3F)ccnc2cc1OCCCN1CCOCC1 [Example D42, Biphenyl-3-sulfonic acid {3-fluoro-4-[6-methoxy-7-(3-morpholin-4-yl-propoxy)-quinolin-4-yloxy]-phenyl}-amide]
melting point: 210 to 212 °C

COc1cc2c(Oc3ccc(NS(=O)(=O)c4ccc(Cl)cc4F)cc3F)ccnc2cc1OCCCN1CCOCC1 [Example D43, 4-Chloro-2-fluoro-N-{3-fluoro-4-[6-methoxy-7-(3-morpholin-4-yl-propoxy)-quinolin-4-yloxy]-phenyl}-benzenesulfonamide]
melting point: 200 to 203 °C

COc1cc(S(=O)(=O)Nc2ccc(Oc3ccnc4cc(OCCCN5CCOCC5)c(OC)cc34)c(F)c2)ccc1F [Example D44, 4-Fluoro-N-{3-fluoro-4-[6-methoxy-7-(3-morpholin-4-yl-propoxy)-quinolin-4-yloxy]-phenyl}-3-methoxy-benzenesulfonamide]
melting point: 90 to 93 °C

COc1cc2c(Oc3ccc(NS(=O)(=O)c4ccccc4F)cc3F)ccnc2cc1OCCCN1CCOCC1 [Example D45, 2-Fluoro-N-{3-fluoro-4-[6-methoxy-7-(3-morpholin-4-yl-propoxy)-quinolin-4-yloxy]-phenyl}-benzenesulfonamide]
melting point: 179 to 181 °C

COc1cc2c(Oc3ccc(NS(=O)(=O)c4ccccc4[N+](=O)[O-])cc3F)ccnc2cc1OCCCN1CCOCC1 [Example D46, N-{3-Fluoro-4-[6-methoxy-7-(3-morpholin-4-yl-propoxy)-quinolin-4-yloxy]-phenyl}-2-nitro-benzenesulfonamide]
melting point: 166 to 168 °C

COc1cc2c(Oc3ccc(NS(=O)(=O)c4c(Cl)cccc4Cl)cc3F)ccnc2cc1OCCCN1CCOCC1 [Example D47, 2,6-Dichloro-N-{3-fluoro-4-[6-methoxy-7-(3-morpholin-4-yl-propoxy)-quinolin-4-yloxy]-phenyl}-benzenesulfonamide]
melting point: 194 to 196 °C

COc1cc2c(Oc3ccc(NS(=O)(=O)c4cccc5ccccc45)cc3F)ccnc2cc1OCCCN1CCOCC1 [Example D48, Naphthalene-1-sulfonic acid {3-fluoro-4-[6-methoxy-7-(3-morpholin-4-yl-propoxy)-quinolin-4-yloxy]-phenyl}-amide]
melting point: 108 to 111 °C

Source: patent US9206130B2, “Quinoline derivatives as AXL kinase inhibitors” (Max-Planck-Gesellschaft zur Förderung der Wissenschaften …, priority 2008, dated 2015)
